We go through 15 molecules from PubChem BioAssay (NCI).

SMILES strings stand for the structures.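 Step 1: Grow cells in 96-well plates. Step 2: Expose to compound for 48 hours at 5 concentrations. Step 3: Interpolate endpoints linearly; if unreached, use highest concentration. GI50: concentration for 50% inhibition of growth. TGI marks complete inhibition of growth.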

Test systems include M14 melanoma; HOP-62 NSCLC; HS 578T breast; NCI-H522 lung; MDA-MB-435; MDA-N; KM12 colon; MDA-MB-231 breast; OVCAR-3 ovarian.
What all share (assay): growth of human tumour cells (NCI), 48 h

On to `COc1ccc(C(=O)/C=C/c2c(Cl)c3c(c(OC)c2Cl)OCC(=O)N3)cc1`, for which the GI50 in the test with M14 melanoma was 2.03 µM; in the test with HOP-62 NSCLC, 2.8 µM; in the test with HS 578T breast, 4.43 µM; in the test with NCI-H522 lung, 1.55 µM. The TGI was 5.12 µM in the test with M14 melanoma, 6.96 µM in the test on HOP-62 NSCLC, 50.4 µM in the test on HS 578T breast and 3.24 µM with NCI-H522 lung.
For `NNC(=O)Cn1c2ccc(Br)cc2c2nc3ccccc3nc21`, the TGI was more than 100 µM in the test on M14 melanoma; 89.8 µM with HOP-62 NSCLC; more than 100 µM in the test with MDA-MB-435; more than 100 µM with MDA-N; more than 100 µM with KM12 colon; more than 100 µM in the test with MDA-MB-231 breast. For the same molecule, the TGI in the test with OVCAR-3 ovarian was more than 100 µM.
Take `Cc1cc(N2CCCC2)nc(N(CCNc2ccnc3cc(Cl)ccc23)Cc2ccco2)n1`: the GI50 in the test with M14 melanoma was 2.93 µM; with HOP-62 NSCLC, 5.64 µM; with HS 578T breast, 6.6 µM; with MDA-MB-435, 3.33 µM; in the test on KM12 colon, 3.86 µM; in the test on MDA-MB-231 breast, 3.14 µM. The GI50 in the test with NCI-H522 lung was 3.59 µM; in the test on OVCAR-3 ovarian, 3.4 µM. Moreover, the TGI in the test with M14 melanoma is more than 100 µM; in the test with HOP-62 NSCLC it was 30 µM; with HS 578T breast it was 69.3 µM; in the test with MDA-MB-435 it was more than 100 µM; in the test on KM12 colon it was more than 100 µM; in the test with MDA-MB-231 breast it was 23.7 µM. For the same molecule, the TGI in the test with NCI-H522 lung was more than 100 µM; with OVCAR-3 ovarian, 42.3 µM.
On to `COc1ccc(-c2cc(-c3ccc(Nc4ccnc5cc(Cl)ccc45)cc3)[nH]c(=O)c2C#N)c2ccccc12`, for which the TGI is 4.93 µM in the test on M14 melanoma; more than 53.9 µM in the test with HOP-62 NSCLC; 6.02 µM with MDA-N; more than 100 µM in the test with KM12 colon; 51.1 µM with MDA-MB-231 breast; 5.34 µM in the test with OVCAR-3 ovarian.
For `C(CCCCc1nnc(N2CCCCC2)o1)CCCc1nnc(N2CCCCC2)o1`, the TGI with M14 melanoma, in the test on HOP-62 NSCLC, with MDA-MB-435, in the test with KM12 colon, in the test on MDA-MB-231 breast and in the test on NCI-H522 lung was more than 100 µM each time. This molecule showed a TGI with OVCAR-3 ovarian of more than 100 µM.
For `C[C@@H]1CC[C@H]2C(C(O)CCCCC(O)C3=C(C(F)(F)F)O[C@@H]4O[C@@]5(C)CC[C@H]6[C@H](C)CC[C@@H]3[C@@]46OO5)=C(C(F)(F)F)O[C@@H]3O[C@@]4(C)CC[C@@H]1[C@]32OO4` (some centres not stated), the GI50 is 36.9 µM in the test on HOP-62 NSCLC; 37.8 µM in the test on HS 578T breast; 10.5 µM with MDA-MB-435; 4.71 µM with KM12 colon; 16.2 µM in the test with MDA-MB-231 breast; 26.6 µM in the test with NCI-H522 lung. The GI50 in the test on OVCAR-3 ovarian was 7.26 µM. The TGI in the test on HOP-62 NSCLC, in the test on HS 578T breast, in the test on MDA-MB-435, with KM12 colon, with MDA-MB-231 breast and in the test with NCI-H522 lung was more than 100 µM throughout. In the test with OVCAR-3 ovarian, this molecule gave a TGI of more than 100 µM.
Regarding `c1cn(C23C4C5C6C4C2C6C53)cn1` (configuration not stated), the TGI in the test with M14 melanoma, in the test on HOP-62 NSCLC, in the test with HS 578T breast, with MDA-MB-435, in the test on MDA-N and in the test on KM12 colon was more than 100 µM in each case. Moreover, the TGI with MDA-MB-231 breast and in the test on NCI-H522 lung was more than 100 µM in each case.
As to `CC(=O)Oc1c2oc3ccc(Cl)cc3c(=O)c2c(O)c2ccsc12`, the TGI in the test with M14 melanoma, in the test with HOP-62 NSCLC, in the test with HS 578T breast, in the test with MDA-MB-435, in the test on MDA-N and in the test on KM12 colon was more than 100 µM each time. Further, the TGI with MDA-MB-231 breast and in the test with OVCAR-3 ovarian was more than 100 µM throughout.
For the molecule `COc1ccc(-n2c(=O)n(C)c(=O)n2-c2ccc(OC)cc2)cc1`, the TGI with M14 melanoma, in the test with HOP-62 NSCLC, in the test on HS 578T breast, with MDA-MB-435, with MDA-N and in the test with KM12 colon was more than 100 µM in each case. Besides, the TGI in the test with MDA-MB-231 breast and with OVCAR-3 ovarian was more than 100 µM in each case.
Turning to `CC(C)(Oc1ccc(Cl)cc1)C(=O)N(C(=O)N1CCC(c2ccccc2)CC1)c1ccccc1`, the TGI in the test with M14 melanoma, in the test with HOP-62 NSCLC, in the test on HS 578T breast, in the test with MDA-MB-435, with KM12 colon and in the test on MDA-MB-231 breast was more than 100 µM in each case. Moreover, the TGI with OVCAR-3 ovarian is more than 100 µM.
Turning to `Oc1c([Si](c2ccccc2)(c2ccccc2)c2ccccc2)cc2ccccc2c1-c1c(O)c([Si](c2ccccc2)(c2ccccc2)c2ccccc2)cc2ccccc12`, the TGI with M14 melanoma, in the test on HOP-62 NSCLC, with HS 578T breast, in the test with MDA-MB-435, in the test on MDA-N and in the test on KM12 colon was more than 100 µM each time. Besides, the TGI in the test with MDA-MB-231 breast and in the test on NCI-H522 lung was more than 100 µM in each case.
For `CCOC(=O)c1cc2c3c(c(C(C)=O)c(O)c2[nH]1)N(CC(C)CC)CC3` (configuration not stated), the TGI with HS 578T breast was 51.4 µM; in the test with MDA-MB-435, more than 100 µM; in the test on MDA-N, more than 100 µM; with KM12 colon, more than 100 µM; in the test on MDA-MB-231 breast, more than 100 µM; in the test with NCI-H522 lung it was more than 100 µM.
Regarding `CCOC(=O)C(NC(=O)CC)(Nc1cc(C)on1)C(F)(F)F` (configuration not stated), the TGI in the test with M14 melanoma, in the test with HS 578T breast, with MDA-MB-435 and in the test with MDA-N was more than 100 µM throughout.
Turning to `Nc1ccccc1CC(O)C(=O)O` (configuration not stated), the TGI in the test on M14 melanoma, in the test with HOP-62 NSCLC, in the test with HS 578T breast, in the test with MDA-MB-435, in the test with MDA-N and with KM12 colon was more than 100 µM in each case. The TGI in the test on MDA-MB-231 breast and in the test with OVCAR-3 ovarian was more than 100 µM each time.
As for `O=c1c2cc(I)ccc2nc(-c2cccs2)n1-c1ccc(O)cc1`, the TGI was 29.3 µM with M14 melanoma; 32.4 µM with HOP-62 NSCLC; 30.8 µM with MDA-MB-435; 62.8 µM in the test on MDA-N; 25.1 µM with KM12 colon; 30.1 µM in the test with NCI-H522 lung. The molecule also had a TGI in the test on OVCAR-3 ovarian of 21.8 µM.
